Test results taken from publication PMC9975698, “Hyperoside alleviates toxicity of β-amyloid via endoplasmic reticulum-mitochondrial calcium signal transduction cascade in APP/PS1 double transgenic Alzheimer's disease mice” (Redox Biology, 2023).

Columns and labels:
[1] = system: APP/PS1 mice; test: Western blot of APP/GFAP/APP-β/BACE1 in cortex and hippocampus lysates; assay type: in vivo
Method: After HYP treatment, the cells were lysed with RIPA. Protein concentrations were determined by Bio-Rad protein assay (Bio-Rad Laboratories, CA, USA). After electrophoretic separation, the gels were blotted and stained with primary antibodies. Binding of antibodies was visualized with peroxidase-coupled secondary antibodies using ECL Western Blotting detection reagents (Invitrogen, Scotland, UK). Band intensities were quantified using ImageJ software. Data were obtained from three independent experiments. All animal care and experimental procedures were performed in accordance with the “Institutional Animal Care and User Committee Guidelines” of the Macau University of Science and Technology. APP/PSEN1 (APP/PS1) mice (N000175) were purchased from the Nanjing Institute of Biomedical Sciences, Nanjing University, China, weighing 25 ± 5 g. The animals were housed in a temperature-controlled room with a 12 h light/dark cycle and given ad libitum food and water. Male mice were randomly divided into the following 6 experimental groups. (a) wild-type group (n = 6), (b) APP/PS1 group (n = 6), (c) HYP (20 mg/kg group) (n = 7), (d) HYP (40 mg/kg) group (n = 8), (e) HYP (80 mg/kg) group (n = 8) and (f) memantine (MEM) (10 mg/kg) positive control group (n = 8). […]

[2] = system: APP/PS1 mice; test: Thioflavin S staining of Aβ plaques in brain; assay type: in vivo; settings: cortex and hippocampus, HYP 20/40/80 mg/kg nasal, 8 weeks
Method: All animal care and experimental procedures were performed in accordance with the “Institutional Animal Care and User Committee Guidelines” of the Macau University of Science and Technology. APP/PSEN1 (APP/PS1) mice (N000175) were purchased from the Nanjing Institute of Biomedical Sciences, Nanjing University, China, weighing 25 ± 5 g. The animals were housed in a temperature-controlled room with a 12 h light/dark cycle and given ad libitum food and water. Male mice were randomly divided into the following 6 experimental groups. (a) wild-type group (n = 6), (b) APP/PS1 group (n = 6), (c) HYP (20 mg/kg group) (n = 7), (d) HYP (40 mg/kg) group (n = 8), (e) HYP (80 mg/kg) group (n = 8) and (f) memantine (MEM) (10 mg/kg) positive control group (n = 8). HYP was dissolved in the solvent containing 10% DMSO, 40% PEG300 and 5% Tween-80 in PBS, and administrated via nasal injection for every 3 days with a volume of 0.5 μL/g of body weight for 8 consecutive weeks. Paraffin sections of the brain were washed three times with PBS after dewaxing and then stained with THS dissolved in 50% alcohol for 7 min, followed by 50% alcohol solution for washing. Sections were then air-dried and sealed with neutral gel for microscopic observation. Images were captured by API DeltaVision Live‐cell Imaging System (Applied Precision Inc., DC, USA).

[3] = system: APP/PS1 mice; test: Nissl staining of hippocampus; assay type: in vivo; settings: hippocampus CA3 and DG, vs APP/PS1 control group
Method: All animal care and experimental procedures were performed in accordance with the “Institutional Animal Care and User Committee Guidelines” of the Macau University of Science and Technology. APP/PSEN1 (APP/PS1) mice (N000175) were purchased from the Nanjing Institute of Biomedical Sciences, Nanjing University, China, weighing 25 ± 5 g. The animals were housed in a temperature-controlled room with a 12 h light/dark cycle and given ad libitum food and water. Male mice were randomly divided into the following 6 experimental groups. (a) wild-type group (n = 6), (b) APP/PS1 group (n = 6), (c) HYP (20 mg/kg group) (n = 7), (d) HYP (40 mg/kg) group (n = 8), (e) HYP (80 mg/kg) group (n = 8) and (f) memantine (MEM) (10 mg/kg) positive control group (n = 8). HYP was dissolved in the solvent containing 10% DMSO, 40% PEG300 and 5% Tween-80 in PBS, and administrated via nasal injection for every 3 days with a volume of 0.5 μL/g of body weight for 8 consecutive weeks. The CA1, CA3 and DG regions of the mouse hippocampus was assessed by Nissl staining for Nissl body detection. Brain sections were dehydrated as the same as in HE staining, followed by 1% tar violet staining for 1 h, and with distilled water washing followed by 70% alcohol separation for 1 min. Tissues were then dehydrated in 70%, 80% and 90% of alcohol. […]

[4] = biological target: T1, β-secretase (Mus musculus, UniProt P56818); test: BACE-1 inhibition assay (β-secretase activity in HT22 cell lysate); assay type: cell-based; settings: HT22 cells, HYP 20–80 μM, 24 h
T1 construct: 50 μL supernatant (cell lysate) was transferred to each well in the 96-well plate; endogenous in cells; host or cells: HT22 cells
Method: The assay was performed in a 96-well flat-bottom white plate using β-Secretase Activity Fluorometric Assay Kit (Biovision, CA, USA). To begin, HT22 cells were treated with HYP (20–80 μM) for 24 h and then collected by centrifugation with ice-cold extraction buffer added for homogenization. After centrifugation, 50 μL supernatant (cell lysate) was transferred to each well in the 96-well plate. 2 μL of active β-secretase (protein concentration: 4 μg/μL) was added to the 50 μL of extraction buffer as the positive control. For negative control, 2 μL of the β-secretase inhibitor was added to the 50 μL of sample well. 2 μL of each of the tested samples were added into each sample well for inhibitory activity evaluation. Following compounds addition, 50 μL of 2X reaction buffer was added with a gentle mix and incubation for 20 min at 37 °C before adding 2 μL of the β-secretase substrate. The plate was then covered and incubated in the dark at 37 °C for 1 h. Samples were then measured in a fluorescent 96-well plate reader (Ex/Em = 345/500 nm). Background readings produced from the substrate without adding secretase were subtracted from all samples.

[5] = system: APP/PS1 mice; test: RT-PCR validation of calcium-related genes in mice; assay type: in vivo; settings: HYP group compared to APP/PS1 group
Method: To investigate the molecular mechanism of HYP, initial data (36,668 raw reads) obtained from the RNA sequencing were performed. […] In GO classification, the unigenes were annotated in three major categories (Fig. 8B). […] For the biological process category, most of the unigenes were matched to immune and signaling processes. For the cellular component category, most of the unigenes were assigned to cell and cell part. For the molecular function category, binding activity accounted for the largest proportion. […] Gene set enrichment analysis (GSEA) has been extensively applied to identify underlying pathways. In Fig. 8D, GSEA analysis of calcium channels was performed in conjunction with the previous AD hypothesis. Next, the relative expression levels of the hub genes in the APP and HYP-treated mice groups were examined by RT-PCR analysis.

T1 sequence (P56818 46-501): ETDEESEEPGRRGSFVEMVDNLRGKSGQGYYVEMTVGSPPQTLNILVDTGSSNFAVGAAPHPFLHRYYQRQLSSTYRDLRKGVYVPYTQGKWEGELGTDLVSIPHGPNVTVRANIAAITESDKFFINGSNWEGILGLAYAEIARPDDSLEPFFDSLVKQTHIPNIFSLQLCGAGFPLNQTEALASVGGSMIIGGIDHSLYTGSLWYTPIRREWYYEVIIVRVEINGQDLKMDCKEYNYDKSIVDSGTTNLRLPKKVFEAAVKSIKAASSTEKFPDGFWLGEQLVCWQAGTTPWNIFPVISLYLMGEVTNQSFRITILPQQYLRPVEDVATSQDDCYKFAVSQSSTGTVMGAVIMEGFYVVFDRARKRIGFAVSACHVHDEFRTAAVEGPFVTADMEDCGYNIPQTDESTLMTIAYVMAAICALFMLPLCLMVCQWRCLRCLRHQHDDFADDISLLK

## O=c1c(O[C@@H]2O[C@H](CO)[C@H](O)[C@H](O)[C@H]2O)c(-c2ccc(O)c(O)c2)oc2cc(O)cc(O)c12 [HYP, Quercetin-3-O-β-D-galactopyranoside]
[1]
  level of BACE1 and APP-β proteins: reduced the level of APP hydrolysis pathway-associated proteins such as BACE1 and APP-β
[2]
  level of Aβ plaques (ThS): reduced the level of Aβ plaques in the cortex and hippocampus of APP/PS1 mice in a dose-dependent manner
[3]
  density of neuronal cells (Nissl staining): density of neuronal cells in the CA3 and DG regions was higher
[4]
  β-secretase activity: inhibited β-secretase activity
[5]
  mRNA expression levels of calcium-related genes: mRNA expression levels of Cav2.3, Cav1.3, NCLX and TRPV4 were decreased
